# How the values were obtained:
# S. aureus ATCC 29213 = assay: Microbroth dilution MIC (CLSI); details: Staphylococcus aureus, ATCC29213, read-out: MIC (μg/mL) S. aureus ATCC 29213
# E. coli ATCC 25922 = assay: Microbroth dilution MIC (CLSI); details: Escherichia coli, ATCC25922, read-out: MIC (μg/mL) E. coli ATCC 25922
# E. faecalis ATCC 29212 = assay: Microbroth dilution MIC (CLSI); details: Enterococcus faecalis, ATCC29212, read-out: MIC (μg/mL) E. faecalis ATCC 29212
# E. coli DNA gyrase = E. coli DNA gyrase (Escherichia coli (strain K12), UniProt P0AES6); assay: DNA gyrase inhibition assay (Inspiralis, streptavidin-coated plates); assay type: biochemical
# Protocol: Inhibitory activities for compounds of the present invention were determined on E. coli and S. aureus DNA gyrase and topoisomerase IV in an assay from Inspiralis on streptavidin-coated 96-well microtiter plates from Thermo scientific Pierce. […] After washing off the unbound oligonucleotide, the enzyme test was performed. […] Reaction solutions were incubated at 37° C. for 30 min. After that, the TF buffer (50 mM NaOAc with pH 5.0, 50 mM NaCl and 50 mM MgCl2) was added to terminate the enzymatic reaction. After additional incubation for 30 min at rt, during which biotin-oligonucleotide-plasmid triplex was formed, the unbound plasmid was washed off using TF buffer and SybrGOLD in T10 buffer (10 mM Tris HCl with pH 8.0 and 1 mM EDTA) was added. […] GraphPad Prism 6.0 software was used to calculate the IC50 values. The result is given as the average value of three independent measurements. […] Chemoth.
# E. faecium ATCC 35667 = assay: Microbroth dilution MIC (CLSI); details: Enterococcus faecium, ATCC35667, read-out: MIC (μg/mL) E. faecium ATCC 35667
SMILES,MIC (S. aureus ATCC 29213) [µg/mL],MIC (E. coli ATCC 25922) [µg/mL],MIC (E. faecalis ATCC 29212) [µg/mL],IC50 (E. coli DNA gyrase) [nM],MIC (E. faecium ATCC 35667) [µg/mL]
"Cc1[nH]c(C(=O)N(c2nc3ccc(C(=O)O)cc3s2)C2CC2)c(Cl)c1Cl [Example 42, 2-(3,4-dichloro-N-cyclopropyl-5-methyl-1H-pyrrole-2-carboxamido)benzo[d]thiazole-6-carboxylic acid]",2,> 64,0.25,24 ± 1,–
"O=C(OCc1cc(=O)c(O)co1)c1ccc2nc(NC(=O)c3cc(Br)c(Br)[nH]3)sc2c1 [Example 39, (5-hydroxy-4-oxo-4H-pyran-2-yl)methyl 2-(4,5-dibromo-1H-pyrrole-2-carboxamido)benzo[d]thiazole-6-carboxylate]",> 64,> 64,–,1400 ± 20,> 64
"O=C(OCc1cc(=O)c(O)c[nH]1)c1ccc2nc(NC(=O)c3cc(Br)c(Br)[nH]3)sc2c1 [Example 40, (5-hydroxy-4-oxo-1,4-dihydropyridin-2-yl)methyl 2-(4,5-dibromo-1H-pyrrole-2-carboxamido)benzo[d]thiazole-6-carboxylate]",> 64,> 64,–,1700 ± 360,> 64
"Cc1[nH]c(C(=O)Nc2nc3ccc(C(=O)O)c(Cl)c3s2)c(Cl)c1Cl [Example 14, 7-chloro-2-(3,4-dichloro-5-methyl-1H-pyrrole-2-carboxamido)benzo[d]thiazole-6-carboxylic acid]",> 64,> 64,> 64,310 ± 30,> 64
"CCN(C(=O)c1[nH]c(C)c(Cl)c1Cl)c1nc2ccc(C(=O)O)cc2s1 [Example 43, 2-(3,4-dichloro-N-ethyl-5-methyl-1H-pyrrole-2-carboxamido)benzo[d]thiazole-6-carboxylic acid]",0.13,32,0.13,7.2 ± 2,–
"O=C(O)c1cc(O)c2nc(NC(=O)c3cc(Br)c(Br)[nH]3)sc2c1 [Example 6, 2-(4,5-dibromo-1H-pyrrole-2-carboxamido)-4-hydroxybenzo[d]thiazole-6-carboxylic acid]",> 64,> 64,32,46 ± 33,> 64
"O=C(O)c1ccc2nc(N(Cc3ccccc3)C(=O)c3cc(Br)c(Br)[nH]3)sc2c1 [Example 15, 2-(N-benzyl-4,5-dibromo-1H-pyrrole-2-carboxamido)benzo[d]thiazole-6-carboxylic acid]",0.42,> 64,0.21,5.1 ± 1.3,0.83
"Cc1[nH]c(C(=O)Nc2nc3c(F)cc(C(=O)O)cc3s2)c(Cl)c1Cl [Example 5, 2-(3,4-dichloro-5-methyl-1H-pyrrole-2-carboxamido)-4-fluorobenzo[d]thiazole-6-carboxylic acid]",1,16,0.0625,< 5,0.61
"Cc1[nH]c(C(=O)Nc2nc3ccc(C(N)=O)cc3s2)c(Cl)c1Cl [Example 18, 2-(3,4-dichloro-5-methyl-1H-pyrrole-2-carboxamido)benzo[d]thiazole-6-carboxamide]",1.16,> 64,> 64,11 ± 2,> 64
"Cc1[nH]c(C(=O)Nc2nc3cc(C(=O)O)ccc3s2)c(Cl)c1Cl [Example 4, 2-(3,4-dichloro-5-methyl-1H-pyrrole-2-carboxamido)benzo[d]thiazole-5-carboxylic acid]",> 64,> 64,> 64,830 ± 150,> 64
"Cc1[nH]c(C(=O)Nc2nc3cc(O)c(C(=O)O)cc3s2)c(Cl)c1Cl [Example 13, 2-(3,4-dichloro-5-methyl-1H-pyrrole-2-carboxamido)-5-hydroxybenzo[d]thiazole-6-carboxylic acid]",16,> 64,1,< 5,1.21
"Cc1[nH]c(C(=O)Nc2nc3ccc(C(=O)O)cc3s2)c(Cl)c1Br [Example 45, 2-(4-bromo-3-chloro-5-methyl-1H-pyrrole-2-carboxamido) benzo[d]thiazole-6-carboxylic acid]",0.13,> 64,0.0625,< 5,–
"Cc1[nH]c(C(=O)Nc2nc3c(OCCN4CCOCC4)cc(C(=O)NCC#N)cc3s2)c(Cl)c1Cl.Cl [Example 25, 4-(2-((6-((cyanomethyl)carbamoyl)-2-(3,4-dichloro-5-methyl-1H-pyrrole-2-carboxamido)benzo[d]thiazol-4-yl)oxy)ethyl)morpholin-4-ium chloride]",> 64,> 64,> 64,< 5,–
"Cc1[nH]c(C(=O)Nc2nc3c(OCc4ccccc4)cc(-c4nnn[nH]4)cc3s2)c(Cl)c1Cl [Example 29, N-(4-(benzyloxy)-6-(1H-tetrazol-5-yl)benzo[d]thiazol-2-yl)-3,4-dichloro-5-methyl-1H-pyrrole-2-carboxamide]",4,> 64,0.125,–,–
"Cc1[nH]c(C(=O)Nc2nc3ccc(C(=O)NCC#N)cc3s2)c(Cl)c1Cl [Example 26, N-(cyanomethyl)-2-(3,4-dichloro-5-methyl-1H-pyrrole-2-carboxamido)benzo[d]thiazole-6-carboxamide]",> 64,> 64,> 64,16 ± 4,–
"Cc1[nH]c(C(=O)Nc2nc3c(OCCN)cc(C(=O)O)cc3s2)c(Cl)c1Cl.Cl [Example 11, 2-((6-carboxy-2-(3,4-dichloro-5-methyl-1H-pyrrole-2-carboxamido)benzo[d]thiazol-4-yl)oxy)ethan-1-aminium chloride]",> 64,> 64,> 64,< 5,> 64
"COC(=O)c1cc(N2CC[C@H](N)C2)c2nc(NC(=O)c3[nH]c(C)c(Cl)c3Cl)sc2c1.Cl [Example 34, (S)-1-(2-(3,4-dichloro-5-methyl-1H-pyrrole-2-carboxamido)-6-(methoxycarbonyl)benzo[d]thiazol-4-yl)pyrrolidin-3-aminium chloride]",≥ 32,≥ 32,≥ 32,48 ± 9,–
"Cc1[nH]c(C(=O)N(c2nc3ccc(C(=O)O)cc3s2)C(C)C)c(Cl)c1Cl [Example 41, 2-(3,4-dichloro-N-isopropyl-5-methyl-1H-pyrrole-2-carboxamido)benzo[d]thiazole-6-carboxylic acid]",32,≥ 32,32,320 ± 70,–
"Cc1[nH]c(C(=O)Nc2nc3c(N4CC[C@H](N)C4)cc(C(=O)O)cc3s2)c(Cl)c1Cl.Cl [Example 36, (S)-1-(6-carboxy-2-(3,4-dichloro-5-methyl-1H-pyrrole-2-carboxamido)benzo[d]thiazol-4-yl)pyrrolidin-3-aminium chloride]",4,≥ 32,0.5,< 5,–
"O=C(O)c1cc(OCc2cc(=O)c(O)c[nH]2)c2nc(NC(=O)c3cc(Br)c(Br)[nH]3)sc2c1 [Example 38, 2-(4,5-dibromo-1H-pyrrole-2-carboxamido)-4-((5-hydroxy-4-oxo-1,4-dihydropyridin-2-yl)methoxy)benzo[d]thiazole-6-carboxylic acid]",> 64,> 64,> 64,–,–
"Cc1[nH]c(C(=O)Nc2nc3c(OCc4ccccc4)cc(C(N)=O)cc3s2)c(Cl)c1Cl [Example 28, 4-(benzyloxy)-2-(3,4-dichloro-5-methyl-1H-pyrrole-2-carboxamido)benzo[d]thiazole-6-carboxamide]",> 64,> 64,> 64,11 ± 2,–
"COC(=O)c1cc(N2CC[C@H](NC(=O)OC(C)(C)C)C2)c2nc(NC(=O)c3[nH]c(C)c(Cl)c3Cl)sc2c1 [Example 33, methyl (S)-4-(3-((tert-butoxycarbonyl)amino)pyrrolidin-1-yl)-2-(3,4-dichloro-5-methyl-1H-pyrrole-2-carboxamido)benzo[d]thiazole-6-carboxylate]",≥ 32,≥ 32,≥ 32,> 10000,–
"Cc1[nH]c(C(=O)Nc2nc3c(OCc4ccccc4)cc(C(=O)NCC#N)cc3s2)c(Cl)c1Cl [Example 27, 4-(benzyloxy)-N-(cyanomethyl)-2-(3,4-dichloro-5-methyl-1H-pyrrole-2-carboxamido)benzo[d]thiazole-6-carboxamide]",4,> 64,16,5.4 ± 2,–
"Cc1[nH]c(C(=O)Nc2nc3c(N4CC[C@H](NC(=O)OC(C)(C)C)C4)cc(C(=O)O)cc3s2)c(Cl)c1Cl [Example 35, (S)-4-(3-((tert-butoxycarbonyl)amino)pyrrolidin-1-yl)-2-(3,4-dichloro-5-methyl-1H-pyrrole-2-carboxamido)benzo[d]thiazole-6-carboxylic acid]",0.25,≥ 32,0.0312,< 5,–

# Reference: patent US12258342B2, “Class of DNA gyrase and/or topoisomerase IV inhibitors with activity against gram-positive and gram-negative bacteria” (Univerza v Ljubljani, priority 2018, dated 2025)
